Assay results published in patent publication US20120190669A1, “OXINDOLE COMPOUNDS” (CYLENE PHARMACEUTICALS, INC., priority 2008, published 2012).
Like-named read-outs stand apart in the source and are kept apart here.

How the values were obtained:
[1] = biological target: recombinant human PIM2 (Homo sapiens, UniProt Q9P1W9); experiment: PIM-2 assay (radiometric); format: biochemical; details: Table 6; 15 μm ATP; read-out: PIM2: IC50 (15 μm ATP)
Method: Test compounds dissolved and diluted in DMSO ([…]) were added to a reaction mixture comprising […] of 5× Reaction Buffer (40 mM MOPS pH 7.0, 5 mM EDTA), […] of recombinant human PIM2 solution (4 ng PIM-2 dissolved in dilution buffer (20 mM MOPS pH 7.0; EDTA 1 mM; 5% Glycerol; 0.01% Brij 35; […]; […] 2-mercaptoethanol; 1 mg/ml BSA)) and 8 ul of water. Reactions were initiated by the addition of 10 ul of ATP Solution (49% (15 mM MgCl2; 75 uM ATP) 1% ([γ-33P]ATP: Stock 1 mCi/100 μl; 3000 Ci/mmol (Perkin Elmer)) and 10 ul of substrate peptide solution ([…], dissolved in water at a concentration of 1 mM), Reactions were maintained for 10 min at 30° C. The reactions were quenched with 100 ul of 0.75% Phosphoric acid, then transferred to and filtrered through a Phosphocellulose filter plate (Millipore, MSPH-N6B-50). After washing each well 4 times with 0.75% Phosphoric acid, scintillation fluid (20 uL) was added to each well and the residual radioactivity was measured using a Wallac […] counter.

[2] = test system: PC-3 human prostatic cancer cells; experiment: Alamar Blue cell proliferation assay, PC3; format: cell-based
Method: (§1) A representative cell-proliferation assay protocol using Alamar Blue dye (stored at 4° C., use 20 ul per well) is described hereafter.
(§2) 96-Well Plate Setup and Compound Treatment
(§3) a. Split and trypsinize cells.
(§4) b. Count cells using hemocytometer.
(§5) c. Plate 4,000-5,000 cells per well in 100 μl of medium and seed into a 96-well plate according to the following plate layout. Add cell culture medium only to wells B10 to B12. Wells B1 to B9 have cells but no compound added.
(§6) d. Add 100 μl of 2× drug dilution to each well in a concentration shown in the plate layout above. At the same time, add 100 μl of media into the control wells (wells 1310 to B12). Total volume is 200 μl/well.
(§7) e. Incubate four (4) days at 37° C., 5% CO2 in a humidified incubator.
(§8) f. Add 20 μl Alamar Blue reagent to each well.
(§9) g. Incubate for four (4) hours at 37° C., 5% CO2 in a humidified incubator.
(§10) h. Record fluorescence at an excitation wavelength of 544 nm and emission wavelength of 590 nm using a microplate reader.
(§11) In the assays, cells are cultured with a test compound for approximately four days, the dye is then added to the cells and fluorescence of […] dye is detected after approximately four hours. Different types of cells can be utilized in the assays (e.g., HCT-116 human colorectal carcinoma cells, PC-3 human prostatic cancer cells and MiaPaca human pancreatic carcinoma cells).

[3] = test system: MDAMB-231; experiment: Alamar Blue cell proliferation assay, MDAMB-231; format: cell-based; details: Homo sapiens, MDA-MB-231, Table 3, read-out: AB: MDAMB-231
Method: as §1, §2, §3, §4, §5, §6, §7, §8, §9, §10, §11

[4] = test system: K-562; experiment: Alamar Blue cell proliferation assay, K-562; format: cell-based; details: Homo sapiens
Method: as §1, §2, §3, §4, §5, §6, §7, §8, §9, §10, §11

[5] = biological target: recombinant PIM-1 (Homo sapiens, UniProt P11309); experiment: PIM-1 kinase assay (radiometric, 15 uM ATP, DMSO 4%); format: biochemical
[6] = test system: MiaPaca human pancreatic carcinoma cells; experiment: Alamar Blue cell proliferation assay, MiaPaCa; format: cell-based
Method: as §1, §2, §3, §4, §5, §6, §7, §8, §9, §10, §11

[7] = biological target: T1, recombinant human FLT-3 (Homo sapiens, UniProt P36888); experiment: FLT-3 kinase activity, cell free in vitro assay; format: biochemical; details: Table 7; 10 uM ATP; read-out: FLT3_RB: IC50
T1 sequence (P36888 27-993): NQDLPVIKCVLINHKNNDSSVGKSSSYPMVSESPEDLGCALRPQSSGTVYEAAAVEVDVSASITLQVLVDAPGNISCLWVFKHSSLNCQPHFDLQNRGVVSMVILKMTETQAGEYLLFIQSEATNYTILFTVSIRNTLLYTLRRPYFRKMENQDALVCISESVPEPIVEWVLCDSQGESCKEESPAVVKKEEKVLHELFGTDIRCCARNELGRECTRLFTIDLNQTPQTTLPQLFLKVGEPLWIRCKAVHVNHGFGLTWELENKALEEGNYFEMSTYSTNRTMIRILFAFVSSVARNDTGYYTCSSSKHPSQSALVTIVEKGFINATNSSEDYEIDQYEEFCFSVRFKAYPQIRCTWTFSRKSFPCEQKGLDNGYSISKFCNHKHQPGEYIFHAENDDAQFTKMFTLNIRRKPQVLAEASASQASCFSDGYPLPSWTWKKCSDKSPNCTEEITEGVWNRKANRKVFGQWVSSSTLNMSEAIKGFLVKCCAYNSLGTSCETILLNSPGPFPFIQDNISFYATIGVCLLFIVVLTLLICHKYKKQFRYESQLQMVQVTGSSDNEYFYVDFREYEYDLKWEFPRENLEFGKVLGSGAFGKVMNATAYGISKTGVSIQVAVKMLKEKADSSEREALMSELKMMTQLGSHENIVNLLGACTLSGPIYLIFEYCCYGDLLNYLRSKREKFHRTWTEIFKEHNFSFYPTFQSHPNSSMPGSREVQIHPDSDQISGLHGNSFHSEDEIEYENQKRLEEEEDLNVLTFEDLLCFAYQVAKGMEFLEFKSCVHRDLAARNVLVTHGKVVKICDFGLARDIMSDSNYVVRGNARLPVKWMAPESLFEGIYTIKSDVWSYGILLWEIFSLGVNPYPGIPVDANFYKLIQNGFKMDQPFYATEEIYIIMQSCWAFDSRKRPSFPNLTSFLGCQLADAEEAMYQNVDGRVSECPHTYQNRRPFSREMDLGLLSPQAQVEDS

[8] = test system: MV-4-11; experiment: Alamar Blue cell proliferation assay, MV-4-11; format: cell-based; details: Homo sapiens
Method: as §1, §2, §3, §4, §5, §6, §7, §8, §9, §10, §11

[9] = test system: phospho BAD; experiment: phospho BAD cell-based data; details: Table 4
[10] = test system: THP-1; experiment: Alamar Blue cell proliferation assay, THP-1; format: cell-based; details: Homo sapiens, Table 4, read-out: AB: THP-1
Method: as §1, §2, §3, §4, §5, §6, §7, §8, §9, §10, §11

[11] = test system: phospho FLT3; experiment: phospho FLT3 cell-based data; details: Table 4
[12] = test system: HCT-116 human colorectal carcinoma cells; experiment: Alamar Blue cell proliferation assay, HCT-116; format: cell-based; details: Table 4, read-out: AB: HCT-116
Method: as §1, §2, §3, §4, §5, §6, §7, §8, §9, §10, §11

[13] = K562, Table 3, read-out: AB: K-562
[14] = Table 3, DMSO 4%, read-out: PIM1: IC50 (DMSO 4%)
[15] = MIA PaCa-2, Table 3, read-out: AB: MiaPaCa
[16] = MV4-11, Table 3, read-out: AB: MV-4-11
[17] = K562, Table 4, read-out: AB: K-562
[18] = MV4-11, Table 4, read-out: AB: MV-4-11
[19] = MIA PaCa-2, Table 4, read-out: AB: MiaPaCa
[20] = Table 4, 15 um ATP, read-out: PIM1: IC50 (15 um ATP)

recombinant human PIM2, sequence (Q9P1W9 whole entry): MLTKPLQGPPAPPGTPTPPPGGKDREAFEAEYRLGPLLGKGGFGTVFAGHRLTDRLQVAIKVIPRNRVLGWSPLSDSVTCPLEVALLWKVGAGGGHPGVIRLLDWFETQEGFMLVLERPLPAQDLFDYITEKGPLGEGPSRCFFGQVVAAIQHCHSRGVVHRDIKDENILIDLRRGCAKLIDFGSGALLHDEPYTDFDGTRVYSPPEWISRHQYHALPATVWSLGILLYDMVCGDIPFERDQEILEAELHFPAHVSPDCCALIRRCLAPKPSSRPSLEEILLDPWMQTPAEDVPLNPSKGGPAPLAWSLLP
recombinant PIM-1, sequence (P11309 whole entry): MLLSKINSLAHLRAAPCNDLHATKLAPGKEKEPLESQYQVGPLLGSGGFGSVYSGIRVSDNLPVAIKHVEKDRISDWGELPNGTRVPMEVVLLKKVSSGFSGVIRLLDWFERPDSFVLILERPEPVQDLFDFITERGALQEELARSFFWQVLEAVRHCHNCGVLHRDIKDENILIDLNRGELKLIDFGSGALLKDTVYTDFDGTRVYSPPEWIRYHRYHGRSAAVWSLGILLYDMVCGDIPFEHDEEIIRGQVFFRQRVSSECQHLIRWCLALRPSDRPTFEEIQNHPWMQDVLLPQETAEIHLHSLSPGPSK

Compound | IC50 ([2]; Table 3, read-out: AB: PC3) | IC50 [3] | IC50 [4, 13] | IC50 [5, 14] | IC50 [6, 15] | IC50 [8, 16] | further results
CCN(CC)CCNC(=O)c1ccc(-c2ccc(/C=C3/C(=O)Nc4ccc(Cl)cc43)o2)cc1 [drawing 260] | – | – | – | – | – | – | IC50 [1]: < 1000 nM
NC(=O)c1ccc(-c2ccc(/C=C3\C(=O)Nc4ccc(Cl)cc43)o2)cc1 | > 30000 nM | > 10000 nM | > 10000 nM | < 1000 nM | > 10000 nM | – | –
CN1CCCN(C(=O)c2ccc(-c3ccc(/C=C4/C(=O)Nc5ccc(Cl)cc54)o3)cc2)CC1 [drawing 259] | – | – | – | – | – | – | IC50 [1]: < 1000 nM
O=C1Nc2ccccc2/C1=C\c1ccc(-c2ccc(C(=O)NCCN3CCCC3)cc2)o1 | – | – | – | – | – | – | IC50 [7]: 99 nM
O=C1Nc2ccc(Cl)cc2/C1=C/c1ccc(-c2ccc3cc(O)ccc3c2)o1 | 12000 nM | > 10000 nM | > 10000 nM | < 1000 nM | > 10000 nM | 189 nM | –
O=C1Nc2ccc(Cl)cc2/C1=C\c1ccc(-c2cccc(-c3nnc[nH]3)c2)o1 | > 30000 nM | > 10000 nM | > 10000 nM | < 1000 nM | > 10000 nM | > 10000 nM | –
O=C1Nc2ccc(Cl)cc2/C1=C\c1ccc(-c2cccc(C(=O)NCCCO)c2)o1 | – | – | – | – | – | – | IC50 [9]: 3500 nM; IC50 ([2]; Table 4, read-out: AB: PC3): > 30000 nM; IC50 [10]: > 30000 nM; IC50 [4, 17]: > 10000 nM; IC50 [8, 18]: 608 nM; IC50 [11]: > 10000 nM; IC50 [6, 19]: > 30000 nM
O=C1Nc2ccc(F)cc2/C1=C\c1ccc(-c2cccc(C(=O)NC3CC3)c2)o1 [drawing 263] | – | – | – | – | – | – | IC50 [7]: 306 nM
NC(=O)c1cccc(-c2ccc(/C=C3\C(=O)Nc4ccc(Cl)cc43)o2)c1 | > 30000 nM | > 10000 nM | > 10000 nM | < 1000 nM | > 10000 nM | 1910 nM | –
Cn1cncc1CNC(=O)c1cccc(-c2ccc(/C=C3/C(=O)Nc4ccc(F)cc43)o2)c1 [drawing 265] | – | – | – | – | – | – | IC50 [7]: 100 nM
CN(C)CCNC(=O)c1cccc(-c2ccc(/C=C3/C(=O)Nc4ccc(Cl)cc43)o2)c1 [drawing 232] | – | – | – | – | – | – | IC50 [9]: 444 nM; IC50 [12]: 1190 nM; IC50 [4, 17]: 367 nM; IC50 [8, 18]: 2990 nM; IC50 [5, 20]: 289 nM; IC50 [11]: 5300 nM; IC50 [6, 19]: 1940 nM
O=C1Nc2ccc(Cl)cc2/C1=C\c1ccc(-c2ccc(OCCN3CCOCC3)cc2)o1 | > 30000 nM | > 10000 nM | > 10000 nM | < 1000 nM | > 10000 nM | > 10000 nM | –
O=C1Nc2ccc(Cl)cc2/C1=C\c1ccc(-c2cccc(C(=O)N3CCCNCC3)c2)o1 | 9620 nM | 3150 nM | 342 nM | – | 815 nM | – | –
C/C(=C1\C(=O)Nc2ccc(Cl)cc21)c1ccc(-c2ccc(C(=O)N3CCCN(C)CC3)cc2)o1 [drawing 258] | – | – | – | – | – | – | IC50 [1]: < 1000 nM
O=C1Nc2ccc(F)cc2/C1=C\c1ccc(-c2cccc(C(=O)NCc3ccncc3)c2)o1 [drawing 264] | – | – | – | – | – | – | IC50 [7]: 147 nM
O=C1Nc2ccccc2/C1=C\c1ccc(-c2ccc(Cl)c(C(=O)NCCN3CCCC3)c2)o1 [drawing 261] | – | – | – | – | – | – | IC50 [7]: 211 nM
CS(=O)(=O)Nc1ccc(-c2ccc(/C=C3\C(=O)Nc4ccc(Cl)cc43)o2)cc1 | 11000 nM | > 10000 nM | 2880 nM | < 1000 nM | > 10000 nM | 2220 nM | –
CC(=O)Nc1cccc(-c2ccc(/C=C3\C(=O)Nc4ccc(Cl)cc43)o2)c1 | 2680 nM | > 10000 nM | > 10000 nM | < 1000 nM | > 10000 nM | 748 nM | –
O=C1Nc2ccc(Cl)cc2/C1=C\c1ccc(-c2cccc(C(=O)NCCCn3ccnc3)c2)o1 [drawing 233] | – | – | – | – | – | – | IC50 [9]: 1860 nM; IC50 [12]: 314 nM; IC50 [4, 17]: 288 nM; IC50 [8, 18]: 67 nM; IC50 [5, 20]: 376 nM; IC50 [11]: > 10000 nM; IC50 [6, 19]: 233 nM
O=C1Nc2ccc(Cl)cc2/C1=C/c1ccc(-c2cnn(CCN3CCOCC3)c2)o1 | > 30000 nM | > 10000 nM | 2320 nM | < 1000 nM | > 10000 nM | 198 nM | –
CC/C(=C1\C(=O)Nc2ccc(Cl)cc21)c1ccc(-c2cccc(C(=O)N3CCCN(C)CC3)c2)o1 | > 30000 nM | > 10000 nM | 153 nM | – | 302 nM | 109 nM | –
CCN(CC)CCNC(=O)c1ccc(-c2ccc(/C=C3/C(=O)Nc4ccc(Cl)cc43)o2)cc1 [drawing 216] | – | > 10000 nM | > 10000 nM | < 1000 nM | > 10000 nM | > 1000 nM | –
